According to ChEMBL document CHEMBL1151106, “Chemical studies on mexican plants used in traditional medicine, VI. Additional new 4-phenylcoumarins from Exostema caribaeum” (1988):
Values after ≈ are worked out from the molar mass of the structure shown. Active and inactive are the calls of the source. The rule behind the calls is not given here.

The compounds below were run on Candida albicans (assay: Antifungal activity against Candida albicans).
Assay type: functional

MIC [µg/mL]	SMILES	Activity
12.5 (≈ 27 µM)	COc1cc(O[C@@H]2O[C@H](CO)[C@H](O)[C@H](O)[C@H]2O)c2c(-c3ccc(O)c(O)c3)cc(=O)oc2c1	
	COc1cc(O[C@@H]2O[C@H](CO)[C@@H](O)[C@H](O)[C@H]2O)c2c(-c3ccc(O)c(O)c3)cc(=O)oc2c1	Active
	COc1ccc(-c2cc(=O)oc3cc(OC)cc(O[C@@H]4O[C@H](CO)[C@H](O)[C@H](O)[C@H]4O)c23)cc1	Active
	COc1cc(O)c2c(-c3ccc(OC)c(O)c3)cc(=O)oc2c1	Active
	COc1cc2c3c(cc(=O)oc3c1)-c1cc(O)c(OC)cc1O2	inactive
	COc1cc(O)c2c(-c3ccc(O)c(O)c3)cc(=O)oc2c1	inactive
	COc1cc(O[C@@H]2O[C@H](COC(C)=O)[C@H](O)[C@H](O)[C@H]2O)c2c(-c3ccc(O)c(O)c3)cc(=O)oc2c1	Active
